The values below come from ChEMBL document CHEMBL1154443, “In vivo studies of 5-arylethenylbenzofuroxans in acute murine models of Chagas' disease” (Eur J Med Chem, 2008).

Activity calls are given as the source filed them. The calls are words filed in the database; no cut-off is given here.

Series [1] concerns Trypanosoma cruzi. Briefly: Antitrypanosomal activity against Trypanosoma cruzi Colombiana infected Swiss mouse assessed as reduction in circulating trypomastigotes antibody level at 120 mg/kg/day, po after 44 days postinfection. The class given is functional, organism-based.
In series [2] the test system is Trypanosoma cruzi. Briefly: Antitrypanosomal activity against Trypanosoma cruzi Colombiana infected Swiss mouse assessed as prevention of heart inflammatory infiltrates at 120 mg/kg/day, po. Type of series: functional, organism-based.
The test system of series [3] is Trypanosoma cruzi. The experiment in a line: Antitrypanosomal activity against Trypanosoma cruzi Colombiana infected Swiss mouse assessed as reduction in circulating trypomastigotes antibody level at 120 mg/kg/day, po after 90 days postinfection. The class given is functional, organism-based.
Series [4] concerns Trypanosoma cruzi. Briefly: Antitrypanosomal activity against Trypanosoma cruzi Tulahuen 2 infected Swiss mouse assessed as prevention of heart inflammatory infiltrates at 120 mg/kg/day, po. Type of series: functional, organism-based.
Series [5] in a line: Toxicity against Trypanosoma cruzi Colombiana infected Swiss mouse assessed as mouse survival at 120 mg/kg/day, po after 25 days. The class given is organism-based. The arrangement: route oral. Particulars: in vivo, read-out: Activity.
Series [6] deals with Trypanosoma cruzi. Briefly: Antitrypanosomal activity against Trypanosoma cruzi Colombiana infected Swiss mouse assessed as prevention of skeletal muscle inflammatory infiltrates at 120 mg/kg/day, po. Type of series: functional, organism-based. Conditions: Muscle tissue.
The subject of series [7] is Trypanosoma cruzi. Briefly: Antitrypanosomal activity against Trypanosoma cruzi Colombiana infected Swiss mouse assessed as prevention of liver congestion at 120 mg/kg/day, po. The class given is functional, organism-based.
Series [8] is described as follows: Toxicity against Trypanosoma cruzi Tulahuen 2 infected Swiss mouse assessed as mouse survival at 120 mg/kg/day, po after 25 days. Type of series: organism-based. Particulars: in vivo, read-out: Activity. The arrangement: route oral.
Series [9] concerns Trypanosoma cruzi. Briefly: Antitrypanosomal activity against Trypanosoma cruzi Tulahuen 2 infected Swiss mouse assessed as prevention of liver congestion at 120 mg/kg/day, po. The class given is functional, organism-based.
Series [10] has as its system Trypanosoma cruzi. Briefly: Antitrypanosomal activity against Trypanosoma cruzi Tulahuen 2 infected Swiss mouse assessed as prevention of muscle inflammatory infiltrates at 120 mg/kg/day, po. Conditions: Muscle tissue. Type of series: functional, organism-based.
In series [11] the test system is Mus musculus. The experiment in a line: Toxicity against Trypanosoma cruzi infected CD1 mouse assessed as effect on heart histology at 300 mg/kg, ip. Type of series: organism-based. The arrangement: dose 300 mg/kg, route intraperitoneal. Particulars: in vivo.
The test system of series [12] is Trypanosoma cruzi. The experiment in a line: Antitrypanosomal activity against Trypanosoma cruzi Argentinian isolate infected Swiss mouse assessed as inhibition of skeletal muscle amastigote nests at 60 mg/kg/day, po. The class given is functional, organism-based. Conditions: Muscle tissue.
Series [13] relates to Mus musculus. Briefly: Toxicity against Trypanosoma cruzi infected CD1 mouse assessed as effect on kidney histology at 450 mg/kg, po. The class given is organism-based. The arrangement: dose 450 mg/kg, route oral. Conditions: in vivo.
Series [14] concerns Mus musculus. Briefly: Toxicity against Trypanosoma cruzi infected CD1 mouse assessed as effect on heart histology at 450 mg/kg, po. On the set-up: dose 450 mg/kg, route oral. Conditions: in vivo. Type of series: organism-based.
Series [15] deals with Trypanosoma cruzi. Briefly: Antitrypanosomal activity against Trypanosoma cruzi Argentinian isolate infected Swiss mouse assessed as prevention of heart inflammatory infiltrates at 60 mg/kg/day, po. Type of series: functional, organism-based.
The subject of series [16] is Mus musculus. Briefly: Toxicity against Trypanosoma cruzi infected CD1 mouse assessed as effect on kidney histology at 300 mg/kg, ip. Type of series: organism-based. On the set-up: dose 300 mg/kg, route intraperitoneal. Conditions: in vivo.
Series [17] concerns Trypanosoma cruzi. The experiment in a line: Antitrypanosomal activity against Trypanosoma cruzi Argentinian isolate infected Swiss mouse assessed as prevention of skeletal muscle inflammatory infiltrates at 60 mg/kg/day, po. Conditions: Muscle tissue. The class given is functional, organism-based.
The subject of series [18] is Mus musculus. Briefly: Toxicity against Trypanosoma cruzi infected CD1 mouse assessed as effect on liver histology at 450 mg/kg, po. The class given is organism-based. On the set-up: dose 450 mg/kg, route oral. Particulars: in vivo.
Series [19] deals with Trypanosoma cruzi. Briefly: Antitrypanosomal activity against Trypanosoma cruzi Argentinian isolate infected Swiss mouse assessed as prevention of liver congestion at 60 mg/kg/day, po. Type of series: functional, organism-based.
In series [20] the test system is Trypanosoma cruzi. Briefly: Antitrypanosomal activity against Trypanosoma cruzi Argentinian isolate infected Swiss mouse assessed as inhibition of heart amastigote nests at 60 mg/kg/day, po. Type of series: functional, organism-based.
Series [21] relates to Mus musculus. The experiment in a line: Toxicity against Trypanosoma cruzi infected CD1 mouse assessed as effect on liver histology at 300 mg/kg, ip. Type of series: organism-based. The arrangement: dose 300 mg/kg, route intraperitoneal. Particulars: in vivo.
The subject of series [22] is Trypanosoma cruzi. The experiment in a line: Antitrypanosomal activity against Trypanosoma cruzi Tulahuen 2 infected Swiss mouse assessed as reduction in circulating trypomastigotes antibody level at 120 mg/kg/day, po after 60 days postinfection. Type of series: functional, organism-based.
In series [23] the test system is Trypanosoma cruzi. The experiment in a line: Antitrypanosomal activity against Trypanosoma cruzi Tulahuen 2 infected Swiss mouse assessed as reduction in circulating trypomastigotes antibody level at 120 mg/kg/day, po after 90 days postinfection. The class given is functional, organism-based.
Series [24] deals with Trypanosoma cruzi. The experiment in a line: Antitrypanosomal activity against Trypanosoma cruzi Tulahuen 2 infected Swiss mouse assessed as prevention of liver congestion at 200 mg/kg/day, po. The class given is functional, organism-based.
Series [25] has as its system Trypanosoma cruzi. The experiment in a line: Antitrypanosomal activity against Trypanosoma cruzi Tulahuen 2 infected Swiss mouse assessed as prevention of muscle inflammatory infiltrates at 200 mg/kg/day, po. Particulars: Muscle tissue. Type of series: functional, organism-based.
Series [26] concerns Trypanosoma cruzi. The experiment in a line: Antitrypanosomal activity against Trypanosoma cruzi Tulahuen 2 infected Swiss mouse assessed as reduction in circulating trypomastigotes antibody level at 200 mg/kg/day, po after 90 days postinfection. Type of series: functional, organism-based.
The test system of series [27] is Trypanosoma cruzi. The experiment in a line: Antitrypanosomal activity against Trypanosoma cruzi Tulahuen 2 infected Swiss mouse assessed as reduction in circulating trypomastigotes antibody level at 200 mg/kg/day, po after 60 days postinfection. The class given is functional, organism-based.
Series [28] relates to Trypanosoma cruzi. The experiment in a line: Antitrypanosomal activity against Trypanosoma cruzi Tulahuen 2 infected Swiss mouse assessed as prevention of heart inflammatory infiltrates at 200 mg/kg/day, po. The class given is functional, organism-based.
Series [29] has as its system Trypanosoma cruzi. Briefly: Antitrypanosomal activity against Trypanosoma cruzi Uruguayan isolate infected CD1 mouse assessed as suppression of parasitemia at 60 mg/kg/day, po after 17 day postinfection. The class given is functional, organism-based.
Series [30] concerns Trypanosoma cruzi. The experiment in a line: Antitrypanosomal activity against Trypanosoma cruzi Tulahuen 2 infected Swiss mouse assessed as suppression of parasitemia at 120 mg/kg/day, po. Type of series: functional, organism-based.
Series [31] deals with Trypanosoma cruzi. Briefly: Antitrypanosomal activity against Trypanosoma cruzi Argentinian isolate infected Swiss mouse assessed as suppression of parasitemia at 60 mg/kg/day, po. The class given is functional, organism-based.
Series [32] concerns Trypanosoma cruzi. Briefly: Antitrypanosomal activity against Trypanosoma cruzi Tulahuen 2 infected Swiss mouse assessed as suppression of parasitemia at 60 mg/kg/day, po. The class given is functional, organism-based.

Turning to `[O-][n+]1onc2ccc(/C=C\c3ccc4c(c3)OCO4)cc21`, the outcome in the series with Trypanosoma cruzi [1] was inactive. The outcome in the series with Trypanosoma cruzi [2], in the series on Trypanosoma cruzi [3], in the series with Trypanosoma cruzi [4], in the series on Trypanosoma cruzi [6], in the series with Trypanosoma cruzi [7] and with Trypanosoma cruzi [9] was Active. Further, in the series with Trypanosoma cruzi [10], the outcome was Active. The survival at 600 h in [5] and in series [8] was 100% in each case.
Consider `CC1CS(=O)(=O)CCN1/N=C/c1ccc([N+](=O)[O-])o1` (configuration not stated) [NIFURTIMOX], for which the Activity entry is reported as “Non-toxic” in the series on Mus musculus [11]; “Toxic” with Mus musculus [13]; “Non-toxic” with Mus musculus [14]; “Non-toxic” in the series on Mus musculus [16]; “Toxic” in the series on Mus musculus [18]; “Toxic” with Mus musculus [21]. Also, the outcome in the series on Trypanosoma cruzi [12], with Trypanosoma cruzi [15], with Trypanosoma cruzi [17], in the series with Trypanosoma cruzi [19] and with Trypanosoma cruzi [20] was Active.
On to `[O-][n+]1onc2ccc(/C=C/c3ccc4c(c3)OCO4)cc21`, for which, in the series on Trypanosoma cruzi [1], the result was inactive. The result in the series with Trypanosoma cruzi [2], with Trypanosoma cruzi [4], in the series on Trypanosoma cruzi [22], in the series with Trypanosoma cruzi [23], in the series on Trypanosoma cruzi [6] and with Trypanosoma cruzi [7] was Active. The result in the series with Trypanosoma cruzi [9] and in the series on Trypanosoma cruzi [10] was Active. In addition, the survival at 600 h in [5] and in series [8] was 100% throughout.
For `O=C(Cn1ccnc1[N+](=O)[O-])NCc1ccccc1` [BENZNIDAZOLE], the result in the series with Trypanosoma cruzi [24], with Trypanosoma cruzi [1], in the series with Trypanosoma cruzi [2], in the series with Trypanosoma cruzi [6], in the series with Trypanosoma cruzi [25] and in the series with Trypanosoma cruzi [7] was Active. Further, the result in the series on Trypanosoma cruzi [26], in the series on Trypanosoma cruzi [27] and in the series on Trypanosoma cruzi [28] was Active. Also, the survival at 600 h in [5] was determined as 100%.
Regarding `[O-][n+]1onc2ccc(/C=C/c3ccccc3)cc21`, the Activity result in the series with Mus musculus [11], in the series on Mus musculus [13], with Mus musculus [14], in the series with Mus musculus [16], in the series with Mus musculus [18] and with Mus musculus [21] was “Non-toxic” throughout. Besides, in the series with Trypanosoma cruzi [1], the outcome was inactive. In addition, the outcome in the series with Trypanosoma cruzi [2], in the series on Trypanosoma cruzi [12], in the series with Trypanosoma cruzi [3], with Trypanosoma cruzi [29], with Trypanosoma cruzi [4] and in the series on Trypanosoma cruzi [30] was Active. In addition, the outcome in the series with Trypanosoma cruzi [6], with Trypanosoma cruzi [15], in the series with Trypanosoma cruzi [17], in the series with Trypanosoma cruzi [7], with Trypanosoma cruzi [31] and in the series with Trypanosoma cruzi [19] was Active. The result in the series with Trypanosoma cruzi [20], with Trypanosoma cruzi [32], in the series on Trypanosoma cruzi [9] and in the series on Trypanosoma cruzi [10] was Active. Also, the survival at 600 h in series [5] and in series [8] was 100% in each case.
